Test results from patent publication US8546565B2, “Quinazolinamide derivatives” (Merck Patent Gesellschaft, priority 2008, dated 2013).
pIC50: −log10 of the molar value.

These molecules were tested against T1, Recombinant human HSP90a (Homo sapiens, UniProt P07900) (assay: HSP90 radioligand filter binding test ([3H]17AAG competition)). Conditions: [3H]17AAG 0.08 μM, HSP90 1.5 μg/assay, 22° C., 30 min; read-out: IC50 (HSP90 inhibition).
T1 construct: host or cells: E. coli
Source text: Test Method for the Measurement of HSP90 Inhibitors
The binding of geldanamycin or 17-allylamino-17-demethoxygeldanamycin (17AAG) to HSP90 and competitive inhibition thereof can be utilised in order to determine the inhibitory activity of the compounds according to the invention (Carreras et al. 2003, Chiosis et al. 2002).
In the specific case, a radioligand filter binding test is used. The radioligand used here is tritium-labelled 17-allylaminogeldanamycin, [3H]17AAG. This filter binding test allows a targeted search for inhibitors which interfere with the ATP binding site.
Recombinant human HSP90a (E. coli expressed, 95% purity);
[3H]17AAG (17-allylaminogeldanamycin, [allylamino-2,3-^3H. Specific activity: 1.11×10^12 Bq/mmol (Moravek, MT-1717);
HEPES filter buffer (50 mM HEPES, pH 7.0, 5 mM MgCl2, BSA 0.01%)
Multiscreen FB (1 μm) filter plate (Millipore, MAFBNOB 50).
The 96-well microtitre filter plates are firstly irrigated and coated with 0.1% of polyethylenimine.
The test is carried out under the following conditions:
Reaction temperature 22° C.
Reaction time: 30 min., shaking at 800 rpm
50 mM HEPES HCl, pH 7.0, 5 mM MgCl2, 0.01% (w/v) of BSA
At the end of the reaction, the supernatant in the filter plate is removed by suction with the aid of a vacuum manifold (Multiscreen Separation System, Millipore), and the filter is washed twice.
The filter plates are then measured in a beta counter (Microbeta, Wallac) with scintillator (Microscint 20, Packard).
“% of control” is determined from the “counts per minutes” values, and the IC-50 value of a compound is calculated therefrom.

Row | Structure (SMILES) | pIC50
1 | CCN(CCN(C)C)C(=O)c1cc(F)c(F)cc1-c1ccc2nc(N)nc(C(=O)N3Cc4ccccc4C3)c2c1 [Compound A76, 2-[2-Amino-4-(1,3-dihydroisoindole-2-carbonyl)quinazolin-6-yl]-N-(2-dimethylaminoethyl)-N-ethyl-4,5-difluorobenzamide] | 6.00 to 8.00
2 | Nc1nc(C(=O)N2Cc3ccccc3C2)c2cc(-c3cc(F)c(F)cc3C(=O)N3CCCC3)ccc2n1 [Compound A78, {2-Amino-6-[4,5-difluoro-2-(pyrrolidine-1-carbonyl)phenyl]quinazolin-4-yl}-(1,3-dihydroisoindol-2-yl)methanone] | 6.00 to 8.00
3 | CC1CCCN1C(=O)c1cc(F)c(F)cc1-c1ccc2nc(N)nc(C(=O)N3Cc4ccccc4C3)c2c1 (stereo not shown) [Compound A79, {2-Amino-6-[4,5-difluoro-2-(2-methylpyrrolidine-1-carbonyl)phenyl]quinazolin-4-yl}-(1,3-dihydroisoindol-2-yl)methanone] | 6.00 to 8.00
4 | CCN(CCO)S(=O)(=O)c1ccc(F)cc1-c1ccc2nc(N)nc(C(=O)N3Cc4ccccc4C3)c2c1 [Compound A82] | 6.00 to 8.00
5 | CCNC(=O)c1cc(F)ccc1-c1ccc2nc(N)nc(C(=O)N3Cc4ccccc4C3)c2c1 [Compound A83, 2-[2-Amino-4-(1,3-dihydroisoindole-2-carbonyl)quinazolin-6-yl]-N-ethyl-5-fluorobenzamide] | 6.00 to 8.00
6 | CCNC(=O)c1cc(OC)c(OC)cc1-c1ccc2nc(N)nc(C(=O)N3Cc4ccccc4C3)c2c1 [Compound A84, 2-[2-Amino-4-(1,3-dihydroisoindole-2-carbonyl)quinazolin-6-yl]-N-ethyl-4,5-dimethoxybenzamide] | < 5.00
7 | CCNC(=O)c1ccc(Cl)cc1-c1ccc2nc(N)nc(C(=O)N3Cc4ccccc4C3)c2c1 [Compound A86, 2-[2-Amino-4-(1,3-dihydroisoindole-2-carbonyl)quinazolin-6-yl]-4-chloro-N-ethylbenzamide] | 6.00 to 8.00
8 | CCN(CC)C(=O)c1ccc(Cl)cc1-c1ccc2nc(N)nc(C(=O)N3Cc4ccccc4C3)c2c1 [Compound A87, 2-[2-Amino-4-(1,3-dihydroisoindole-2-carbonyl)quinazolin-6-yl]-4-chloro-N,N-diethylbenzamide] | 6.00 to 8.00
9 | CCN(CC)C(=O)c1cc(OC)c(OC)cc1-c1ccc2nc(N)nc(C(=O)N3Cc4ccccc4C3)c2c1 [Compound A88, 2-[2-Amino-4-(1,3-dihydroisoindole-2-carbonyl)quinazolin-6-yl]-N,N-diethyl-4,5-dimethoxybenzamide] | 5.00 to 6.00

The remaining lines, values ahead:

Row | pIC50 | Structure (SMILES)
10 | 6.00 to 8.00 | CCN(C)C(=O)c1cc(F)c(F)cc1-c1ccc2nc(N)nc(C(=O)N3Cc4ccccc4C3)c2c1 [Compound A77, 2-[2-Amino-4-(1,3-dihydroisoindole-2-carbonyl)quinazolin-6-yl]-N-ethyl-4,5-difluoro-N-methylbenzamide]
11 | 6.00 to 8.00 | Nc1nc(C(=O)N2Cc3ccccc3C2)c2cc(-c3cc(F)c(F)cc3C(=O)N3CCC3)ccc2n1 [Compound A80, {2-Amino-6-[2-(azetidine-1-carbonyl)-4,5-difluorophenyl]quinazolin-4-yl}-(1,3-dihydroisoindol-2-yl)methanone]
12 | 6.00 to 8.00 | CC(C)(C)NC(=O)c1cc(F)c(F)cc1-c1ccc2nc(N)nc(C(=O)N3Cc4ccccc4C3)c2c1 [Compound A81, 2-[2-Amino-4-(1,3-dihydroisoindole-2-carbonyl)quinazolin-6-yl]-N-tert-butyl-4,5-difluorobenzamide]
13 | < 5.00 | COc1cc(C(=O)NC(C)(C)C)c(-c2ccc3nc(N)nc(C(=O)N4Cc5ccccc5C4)c3c2)cc1OC [Compound A85, 2-[2-Amino-4-(1,3-dihydroisoindole-2-carbonyl)quinazolin-6-yl]-N-tert-butyl-4,5-dimethoxybenzamide]
